The term melting point denotes the temperature of the solid-liquid transition.

Structures can show the parent of a compound that is named as a salt.

As to `O=C(CN1CC2CCC(C1)N2c1ccc(C(F)(F)F)cn1)N1CCc2cc(-c3ccccc3)oc2C1`, the melting point was 155 °C.
`O=C(CN1CC2CCC(C1)N2c1cccnc1)N1CCc2nn(-c3ccc(C(F)(F)F)cn3)cc2C1` showed a melting point of 150 to 151 °C.
For `O=C(CN1CC2CCC(C1)N2c1ccc(C(F)(F)F)cn1)N1CCc2nc(-c3ccccc3)[nH]c2C1`, the melting point fell in the range of 150 to 152 °C.
`O=C(CN1CC2CCC(C1)N2c1cccnc1)N1CCc2nn(-c3ccccn3)cc2C1` came in with a melting point of 61 to 62 °C.
Regarding `O=C(CN1CC2CCC(C1)N2c1ccc(C(F)(F)F)cn1)N1CCc2nc(-c3ccc(F)cc3)[nH]c2C1`, the melting point lay within 148 to 150 °C.
In turn, `O=C(OC1CCC1)c1ccc(N2C3CCC2CN(CC(=O)N2CCc4nn(-c5ccccc5)cc4C2)C3)nc1` registered a melting point of 176 to 177 °C.
With `CCn1cc2c(n1)CCN(C(=O)CN1CC3CCC(C1)N3c1ccc(C(F)(F)F)cn1)C2`, the melting point was 99 to 100 °C.
For the compound `O=C(CN1CC2CCC(C1)N2c1ncc(F)cn1)N1CCc2c(cnn2-c2ccccc2)C1`, the melting point is 148 to 150 °C.
Turning to `O=C(CN1CC2CCC(C1)N2c1cccnc1)N1CCc2nn(-c3ccccc3)cc2C1`, the melting point lay in the range of 165 to 168 °C.
The compound `O=C(CN1CC2CCC(C1)N2c1cncnc1)N1CCc2nn(-c3ccccc3)cc2C1` yielded a melting point of 197 to 198 °C.
Compound `Cn1cc2c(n1)CCN(C(=O)CN1CC3CCC(C1)N3c1ncc(F)cn1)C2` came in with a melting point of 147 to 149 °C.
Next, `O=C(CN1CC2CCC(C1)N2c1ncc(F)cn1)N1CCc2nn(-c3ccc(C(F)(F)F)cn3)cc2C1`: 208 to 209 °C; `CC(C)(C)n1ncc2c1CCN(C(=O)CN1CC3CCC(C1)N3c1ncc(F)cn1)C2`: 142 to 143 °C; `O=C(CN1CC2CCC(C1)N2c1ncc(F)cn1)N1CCc2cc(-c3ccccc3)[nH]c2C1`: 240 to 242 °C.
To `COC(=O)c1ccc(N2CC3CCC(C2)N3CC(=O)N2CCc3nn(-c4ccccc4)cc3C2)nc1` belongs 157 to 158 °C; to `Cc1nc(-c2ccc(N3C4CCC3CN(CC(=O)N3CCc5nc(-c6ccccc6)sc5C3)C4)nc2)no1`, 190 to 192 °C; to `O=C(O)c1ccc(N2CC3CCC(C2)N3CC(=O)N2CCc3nc(-c4ccccc4)sc3C2)nc1`, 250 to 251 °C.
As to `O=C(CN1CC2CCC(C1)N2c1ncc(F)cn1)N1CCc2nc(-c3ccccc3)ncc2C1`, the melting point lay within 212 to 213 °C.
Take `O=C(CN1CC2CCC(C1)N2c1ncc(F)cn1)N1CCc2sc(-c3ccccc3)nc2C1`: the melting point fell in the range of 180 to 184 °C.
On to `O=C(CN1CC2CCC(C1)N2c1ncc(F)cn1)N1CCc2nc(-c3ccc(F)cc3)sc2C1`, for which the melting point lay in the range of 196 to 198 °C.
Next, `COc1ccc(-c2nc3c(s2)CN(C(=O)CN2CC4CCC(C2)N4c2ncc(F)cn2)CC3)cc1`: 203 to 207 °C.
In turn, `Cn1nnc(-c2ccc(N3C4CCC3CN(CC(=O)N3CCc5nn(-c6ccccc6)cc5C3)C4)nc2)n1` had a melting point of 230 to 231 °C.
Next, `O=C(CN1CC2CCC(C1)N2c1ncc(F)cn1)N1CCc2c(cnn2-c2ccc(C(F)(F)F)cc2)C1`: 162 to 164 °C.
On to `C[C@@H]1CN(c2cncnc2)C[C@H](C)N1CC(=O)N1CCc2nn(-c3ccccc3)cc2C1` (as salt: HCl) [compound 16, 2-((2S,6R)-2,6-dimethyl-4-pyrimidin-5-yl-piperazin-1-yl)-1-(2-phenyl-2,4,6,7-tetrahydropyrazolo[4,3-c]pyridin-5-yl)ethanone], for which the melting point is 166 to 167 °C.
`C[C@@H]1CN(c2ccc(C(=O)O)cn2)C[C@H](C)N1CC(=O)N1CCc2nn(-c3ccccc3)cc2C1` (as salt: HCl) [compound 21, 6-{(3S,5R)-3,5-dimethyl-4-[2-oxo-2-(2-phenyl-2,4,6,7-tetrahydropyrazolo[4,3-c]pyridin-5-yl)ethyl]piperazin-1-yl}nicotinic acid] registered a melting point of 209 to 211 °C.
In the case of `COC(=O)c1ccc(N2C[C@@H](C)N(CC(=O)N3CCc4nn(-c5ccccc5)cc4C3)[C@@H](C)C2)nc1` (as salt: HCl) [compound 23, 6-{(3S,5R)-3,5-dimethyl-4-[2-oxo-2-(2-phenyl-2,4,6,7-tetrahydropyrazolo[4,3-c]pyridin-5-yl)ethyl]piperazin-1-yl}nicotinic acid methyl ester], the melting point lay in the range of 210 to 212 °C.
Take `O=C(CN1CCCN(c2cccnc2)CC1)N1CCc2nc(-c3ccccc3)sc2C1` (as salt: HCl) [compound 30, 1-(2-phenyl-6,7-dihydro-4H-thiazolo[5,4-c]pyridin-5-yl)-2-(4-pyridin-3-yl-[1,4]diazepan-1-yl)ethanone]: the melting point lay in the range of 142 to 145 °C.
With `CCOC(=O)c1ccc(N2C[C@@H](C)N(CC(=O)N3CCc4nn(-c5ccccc5)cc4C3)[C@@H](C)C2)nc1` (as salt: HCl) [compound 79, 6-{(3S,5R)-3,5-dimethyl-4-[2-oxo-2-(2-phenyl-2,4,6,7-tetrahydropyrazolo[4,3-c]pyridin-5-yl)ethyl]piperazin-1-yl}nicotinic acid ethyl ester], the melting point lay within 235 to 236 °C.
For `C[C@@H]1CN(c2ccc(C(F)(F)F)cn2)C[C@H](C)N1CC(=O)N1CCc2nn(C)cc2C1` (as salt: HCl) [compound 100, 2-[(2S,6R)-2,6-dimethyl-4-(5-trifluoromethylpyridin-2-yl)piperazin-1-yl]-1-(2-methyl-2,4,6,7-tetrahydropyrazolo[4,3-c]pyridin-5-yl)ethanone], the melting point lay within 50 to 51 °C.
Next, `O=C(CN1CC2CCC(C1)N2c1ncc(F)cn1)N1CCc2c(cnn2CC(F)(F)F)C1` (as salt: oxalate): 160 to 162 °C; `O=C(CN1CCN(c2ccc(C(F)(F)F)cn2)C(=O)C1)N1CCc2c(cnn2CC(F)(F)F)C1` (as salt: oxalate) [compound 66, 4-{2-oxo-2-[1-(2,2,2-trifluoroethyl)-1,4,6,7-tetrahydropyrazolo[4,3-c]pyridin-5-yl]ethyl}-1-(5-trifluoromethylpyridin-2-yl)piperazin-2-one]: 82 to 83 °C; `C[C@@H]1CN(c2ccc(C(F)(F)F)cn2)C[C@H](C)N1CC(=O)N1CCc2nn(CC(F)(F)F)cc2C1` (as salt: oxalate) [compound 126, 2-[(2S,6R)-2,6-dimethyl-4-(5-trifluoromethylpyridin-2-yl)piperazin-1-yl]-1-[2-(2,2,2-trifluoroethyl)-2,4,6,7-tetrahydropyrazolo[4,3-c]pyridin-5-yl]ethanone]: 151 to 153 °C.
`C[C@@H]1CN(c2ncc(C(=O)O)cn2)C[C@H](C)N1CC(=O)N1CCc2nc(-c3ccccc3)sc2C1` (as salt: sodium) [compound 72, 2-{(3S,5R)-3,5-dimethyl-4-[2-oxo-2-(2-phenyl-6,7-dihydro-4H-thiazolo[5,4-c]pyridin-5-yl)ethyl]piperazin-1-yl}pyrimidine-5-carboxylic acid] registered a melting point of 269 to 272 °C.
On to `C[C@@H]1CN(c2ncc(F)cn2)C[C@H](C)N1CC(=O)N1CCc2nn(-c3ccccc3)cc2C1` [compound 17, 2-[(2S,6R)-4-(5-fluoropyrimidin-2-yl)-2,6-dimethylpiperazin-1-yl]-1-(2-phenyl-2,4,6,7-tetrahydropyrazolo[4,3-c]pyridin-5-yl)ethanone], for which the melting point was 174 to 175 °C.
On to `C[C@@H]1CN(c2ccc(C(F)(F)F)nc2)C[C@H](C)N1CC(=O)N1CCc2nc(-c3ccccc3)sc2C1` [compound 18, 2-[(2S,6R)-2,6-dimethyl-4-(6-trifluoromethylpyridin-3-yl)piperazin-1-yl]-1-(2-phenyl-6,7-dihydro-4H-thiazolo[5,4-c]pyridin-5-yl)ethanone], for which the melting point lay within 168 to 169 °C.
As for `C[C@@H]1CN(c2ccc(C(F)(F)F)nc2)C[C@H](C)N1CC(=O)N1CCc2nn(-c3ccccc3)cc2C1` [compound 20, 2-[(2S,6R)-2,6-dimethyl-4-(6-trifluoromethylpyridin-3-yl)piperazin-1-yl]-1-(2-phenyl-2,4,6,7-tetrahydropyrazolo[4,3-c]pyridin-5-yl)ethanone], the melting point lay within 174 to 175 °C.
As for `C[C@@H]1CN(c2cncnc2)C[C@H](C)N1CC(=O)N1CCc2nc(-c3ccccc3)sc2C1` [compound 22, 2-((2S,6R)-2,6-dimethyl-4-pyrimidin-5-yl-piperazin-1-yl)-1-(2-phenyl-6,7-dihydro-4H-thiazolo[5,4-c]pyridin-5-yl)ethanone], the melting point was 215 to 216 °C.
For the compound `COC(=O)c1ccc(N2CCN(CC(=O)N3CCc4nc(-c5ccccc5)sc4C3)CC2=O)nc1` [compound 25, 6-{2-oxo-4-[2-oxo-2-(2-phenyl-6,7-dihydro-4H-thiazolo[5,4-c]pyridin-5-yl)ethyl]piperazin-1-yl}nicotinic acid methyl ester], the melting point fell in the range of 191 to 192 °C.
`COc1ccc(-c2nc3c(s2)CN(C(=O)CN2CCN(c4ccc(C(F)(F)F)cn4)C(=O)C2)CC3)cc1` [compound 34, 4-{2-[2-(4-methoxyphenyl)-6,7-dihydro-4H-thiazolo[5,4-c]pyridin-5-yl]-2-oxoethyl}-1-(5-trifluoromethylpyridin-2-yl)piperazin-2-one]: the melting point was in the range of 191 to 193 °C.
To `O=C(CN1CCN(c2ccc(C(F)(F)F)cn2)C(=O)C1)N1CCc2nc(-c3ccsc3)sc2C1` [compound 42, 4-[2-oxo-2-(2-thiophen-3-yl-6,7-dihydro-4H-thiazolo[5,4-c]pyridin-5-yl)ethyl]-1-(5-trifluoromethylpyridin-2-yl)piperazin-2-one] belongs 179 to 180 °C; to `C[C@@H]1CN(CC(=O)N2CCc3nn(-c4ccccc4)cc3C2)[C@@H](C)CN1c1ccc(C#N)cn1` [compound 52, 6-{(2R,5S)-2,5-dimethyl-4-[2-oxo-2-(2-phenyl-2,4,6,7-tetrahydropyrazolo[4,3-c]pyridin-5-yl)ethyl]piperazin-1-yl}nicotinonitrile], 156 to 159 °C; to `C[C@@H]1CN(CC(=O)N2CCc3nn(-c4ccccc4)cc3C2)[C@@H](C)CN1c1ccc(C(=O)O)cn1` [compound 53, 6-{(2R,5S)-2,5-dimethyl-4-[2-oxo-2-(2-phenyl-2,4,6,7-tetrahydropyrazolo[4,3-c]pyridin-5-yl)ethyl]piperazin-1-yl}nicotinic acid], 165 to 167 °C.

The values are drawn from patent US8580790B2, “(Heterocycle/condensed piperidine)-(piperazinyl)-1-alkanone or (heterocycle/condensed pyrrolidine)-(piperazinyl)-1-alkanone derivatives and use thereof as p75 inhibitors” (Sanofi, priority 2009, dated 2013).
